Reference: US10246425B2, “3,5-diamino-6-chloro-N-(N-(4-phenylbutyl)carbamimidoyl) pyrazine-2-carboxamide compounds” (Parion Sciences, Inc., priority 2012, dated 2019)
Where a name gives a salt, the structure may show the parent alone.

System: Primary CBE cells
Test: Airway hydration and sodium channel block (in vitro model): surface liquid retention
Format: cell-based, canine
Settings: 50 μl buffer, 10 μM, 8 hours
Procedure: Assay 4. Airway Hydration and Sodium Channel Block (In Vitro Model)
Primary CBE cells are plated onto collagen-coated, porous membranes maintained at an air-liquid interface to assess maintenance of surface liquid volume over time. At the start of the experiment, each 12 mm snapwell insert was removed from the plate containing air-liquid interface culture media, blotted dry, weighed, and 50 μL of vehicle (0.1% DMSO), or ENaC blocker (10 μM in 0.1% DMSO) applied to the apical surface and the mass was recorded. The inserts were immediately returned to a transwell plate (500 μL, Krebs Ringer Bicarbonate (KRB), pH 7.4 in lower chamber) and placed in a 37° C., 5% CO2 incubator. To reduce artifact due to an apical carbohydrate osmotic gradient upon water loss, glucose was not included in the apical buffer. Compound (1a) was tested and compared to vehicle, and the mass of ASL was monitored serially from 0-8 or 24 h. The mass of surface liquid was converted to volume in μL. Data are reported as % initial volume (100%=50 μL).
The duration of sodium transport inhibition was determined indirectly by measuring the buffer retained after a 50 μl volume of experimental buffer was added to the apical surface of CBE cells.

| Compound | surface liquid retained on apical surface (% initial volume) [%] |
| --- | --- |
| N=C(N)NC(=O)c1nc(Cl)c(N)nc1N [Amiloride, amiloride, reference compound] | 25±19.2 |

System: human bronchial epithelial (HBE) cells
Test: Airway surface liquid drug (ASL) clearance and metabolism by human airway epithelium
Format: in vitro ADME
Settings: Table 4: HBE cells, 25 μL of 25 μM apical, 2 h, 37° C.; mean ± SD
Procedure: Assay 3. Airway Surface Liquid Drug (ASL) Clearance and Metabolism by Human Airway Epithelium
(§1) The disappearance of Compound II-d from the apical surface and airway epithelial metabolism were assessed in human bronchial epithelial (HBE) cells (Table 3). In these experiments 25 μL of a 25 μM solution of ENaC blocker was added to the apical surface of HBE cells grown at an air/liquid interface, and the drug concentration in the apical and basolateral compartment was measured over 2 h by UPLC.
as §1, with “Therefore, the compounds of Formula (A) have a longer half-life on mucosal surfaces compared to these know compounds as evidenced by the data shown in Table 4. The” for “The”, “HBE and compared to Comparative Example 1” for “human bronchial epithelial (HBE) cells”, “4).” for “3).”

| % of Initial Drug Mass on Apical Side (Parent and metabolite, 2 h) [%] | Compound |
| --- | --- |
| 77.7 ± 12.2 | N=C(NCCCCc1ccc(C[C@H](NCCCN(C[C@H](O)[C@@H](O)[C@H](O)[C@H](O)CO)C[C@H](O)[C@@H](O)[C@H](O)[C@H](O)CO)C(N)=O)cc1)NC(=O)c1nc(Cl)c(N)nc1N [XVI-ee] |
| 76.6 ± 14.7 | CCCCCCN(CCCN[C@@H](Cc1ccc(CCCCNC(=N)NC(=O)c2nc(Cl)c(N)nc2N)cc1)C(N)=O)C[C@H](O)[C@@H](O)[C@H](O)[C@H](O)CO [XVII-d] |

Same assay, conditions: Table 4: HBE cells, 25 μL of 25 μM apical, 2 h; mean ± SD

| Compound | % of Apical Mass as Metabolites (2 h) | % of Initial Apical Mass on Basolateral Side (2 h) [%] | % on Basolateral Side as Metabolites (2 h) |
| --- | --- | --- | --- |
| CCCCCCN(CCCN[C@@H](CCc1ccc(CCCCNC(=N)NC(=O)c2nc(Cl)c(N)nc2N)cc1)C(N)=O)C[C@H](O)[C@@H](O)[C@H](O)[C@H](O)CO [III-d, 3,5-diamino-N—(N-(4-(4-((S)-4-amino-3-(3-(hexyl((2S,3R,4R,5R)-2,3,4,5,6-pentahydroxyhexyl)amino)propylamino)-4-oxobutyl)phenyl)butyl)carbamimidoyl)-6-chloropyrazine-2-carboxamide] | none | 3.5 ± 2.2 | None |
| CCCCCCN(CCCN[C@@H](Cc1ccc2cc(CCCCNC(=N)NC(=O)c3nc(Cl)c(N)nc3N)ccc2c1)C(N)=O)C[C@H](O)[C@@H](O)[C@H](O)[C@H](O)CO [IX-m, 3,5-diamino-N—(N-(4-(6-((S)-3-amino-2-(3-(hexyl((2S,3R,4R,5R)-2,3,4,5,6-pentahydroxyhexyl)amino)propylamino)-3-oxopropyl)naphthalen-2-yl)butyl)carbamimidoyl)-6-chloropyrazine-2-carboxamide] | None | 1.1 ± 0.2 | None |
| Cl.N=C(NCCCCc1ccc(CC[C@H](NCCCN(C[C@H](O)[C@@H](O)[C@H](O)[C@H](O)CO)C[C@H](O)[C@@H](O)[C@H](O)[C@H](O)CO)C(N)=O)c2ccccc12)NC(=O)c1nc(Cl)c(N)nc1N [V-d, 3,5-diamino-N—(N-(4-(4-((S)-4-amino-3-(3-(bis((2S,3R,4R,5R)-2,3,4,5,6-pentahydroxyhexyl)amino)propylamino)-4-oxobutyl)naphthalen-1-yl)butyl)carbamimidoyl)-6-chloropyrazine-2-carboxamide hydrochloride] | none | 9.3 ± 0.86 | None |
| CCCCCCN(CCCN[C@@H](CCc1ccc(CCCCNC(=N)NC(=O)c2nc(Cl)c(N)nc2N)c2ccccc12)C(N)=O)C[C@H](O)[C@@H](O)[C@H](O)[C@H](O)CO [VI-d, 3,5-diamino-N—(N-(4-(4-((S)-4-amino-3-(3-(hexyl((2S,3R,4R,5R)-2,3,4,5,6-pentahydroxyhexyl)amino)propylamino)-4-oxobutyl)naphthalen-1-yl)butyl)carbamimidoyl)-6-chloropyrazine-2-carboxamide hydrochloride] | None | 1.2 ± 0.5 | None |
| N=C(NCCCCc1ccc(C[C@H](NCCCN(C[C@H](O)[C@@H](O)[C@H](O)[C@H](O)CO)C[C@H](O)[C@@H](O)[C@H](O)[C@H](O)CO)C(N)=O)c2ccccc12)NC(=O)c1nc(Cl)c(N)nc1N [VII-ee, 3,5-diamino-N—(N-(4-(4-((S)-3-amino-2-(3-(bis((2S,3R,4R,5R)-2,3,4,5,6-pentahydroxyhexyl)amino)propylamino)-3-oxopropyl)naphthalen-1-yl)butyl)carbamimidoyl)-6-chloropyrazine-2-carboxamide] | None | 6.4 ± 2.1 | None |
| CCCCCCN(CCCN[C@@H](Cc1ccc(CCCCNC(=N)NC(=O)c2nc(Cl)c(N)nc2N)c2ccccc12)C(N)=O)C[C@H](O)[C@@H](O)[C@H](O)[C@H](O)CO [VIII-d, 3,5-diamino-N—(N-(4-(4-((S)-3-amino-2-(3-(hexyl((2S,3R,4R,5R)-2,3,4,5,6-pentahydroxyhexyl)amino)propylamino)-3-oxopropyl)naphthalen-1-yl)butyl)carbamimidoyl)-6-chloropyrazine-2-carboxamide] | None | 2.0 ± 0.8 | None |

Next, values leading:

| % of Apical Mass as Metabolites (2 h) | % of Initial Apical Mass on Basolateral Side (2 h) [%] | % on Basolateral Side as Metabolites (2 h) | Compound |
| --- | --- | --- | --- |
| None | 5.0 ± 3.3 | None | N=C(NCCCCc1ccc2cc(C[C@H](NCCCN(C[C@H](O)[C@@H](O)[C@H](O)[C@H](O)CO)C[C@H](O)[C@@H](O)[C@H](O)[C@H](O)CO)C(N)=O)ccc2c1)NC(=O)c1nc(Cl)c(N)nc1N [X-d, 3,5-diamino-N—(N-(4-(6-((S)-3-amino-2-(3-(bis((2S,3R,4R,5R)-2,3,4,5,6-pentahydroxyhexyl)amino)propylamino)-3-oxopropyl)naphthalen-2-yl)butyl)carbamimidoyl)-6-chloropyrazine-2-carboxamide] |
| None | 1.8 ± 0.3 | None | N=C(NCCCCc1ccc(C[C@H](NCCCN(C[C@H](O)[C@@H](O)[C@H](O)[C@H](O)CO)C[C@H](O)[C@@H](O)[C@H](O)[C@H](O)CO)C(N)=O)c2c1CCCC2)NC(=O)c1nc(Cl)c(N)nc1N [XI-cc, 3,5-diamino-N—(N-(4-(4-((S)-3-amino-2-(3-(bis((2S,3R,4R,5R)-2,3,4,5,6-pentahydroxyhexyl)amino)propylamino)-3-oxopropyl)-5,6,7,8-tetrahydronaphthalen-1-yl)butyl)carbamimidoyl)-6-chloropyrazine-2-carboxamide] |
| None | 9.6 ± 6.3 | None | CCCCCCN(CCCN[C@@H](Cc1ccc(CCCCNC(=N)NC(=O)c2nc(Cl)c(N)nc2N)c2c1CCCC2)C(N)=O)C[C@H](O)[C@@H](O)[C@H](O)[C@H](O)CO [XII-d, 3,5-diamino-N—(N-(4-(4-((S)-3-amino-2-(3-(hexyl((2S,3R,4R,5R)-2,3,4,5,6-pentahydroxyhexyl)amino)propylamino)-3-oxopropyl)-5,6,7,8-tetrahydronaphthalen-1-yl)butyl)carbamimidoyl)-6-chloropyrazine-2-carboxamide] |
| None | 4.2 ± 1.9 | None | N=C(NCCCCc1ccc2cc(CC[C@H](NCCCN(C[C@H](O)[C@@H](O)[C@H](O)[C@H](O)CO)C[C@H](O)[C@@H](O)[C@H](O)[C@H](O)CO)C(N)=O)ccc2c1)NC(=O)c1nc(Cl)c(N)nc1N [XIII-bb, 3,5-diamino-N—(N-(4-(6-((S)-4-amino-3-(3-(bis((2S,3R,4R,5R)-2,3,4,5,6-pentahydroxyhexyl)amino)propylamino)-4-oxobutyl)naphthalen-2-yl)butyl)carbamimidoyl)-6-chloropyrazine-2-carboxamide] |
| None | 0.32 ± 0.6 | None | CCCCCCN(CCCN[C@@H](CCc1ccc2cc(CCCCNC(=N)NC(=O)c3nc(Cl)c(N)nc3N)ccc2c1)C(N)=O)C[C@H](O)[C@@H](O)[C@H](O)[C@H](O)CO [XIV-d, 3,5-diamino-N—(N-(4-(6-((S)-4-amino-3-(3-(hexyl((2S,3R,4R,5R)-2,3,4,5,6-pentahydroxyhexyl)amino)propylamino)-4-oxobutyl)naphthalen-2-yl)butyl)carbamimidoyl)-6-chloropyrazine-2-carboxamide] |
| None | 1.81 ± 1.6 | None | N=C(NCCCCc1ccc(CC[C@H](NCCCN(C[C@H](O)[C@@H](O)[C@H](O)[C@H](O)CO)C[C@H](O)[C@@H](O)[C@H](O)[C@H](O)CO)C(N)=O)c2c1CCCC2)NC(=O)c1nc(Cl)c(N)nc1N [XV-dd, 3,5-diamino-N—(N-(4-(4-((S)-4-amino-3-(3-(bis((2S,3R,4R,5R)-2,3,4,5,6-pentahydroxyhexyl)amino)propylamino)-4-oxobutyl)-5,6,7,8-tetrahydronaphthalen-1-yl)butyl)carbamimidoyl)-6-chloropyrazine-2-carboxamide] |
| None | 14.9 ± 1.4 | None | N=C(NCCCCc1ccc(C[C@H](NCCCN(C[C@H](O)[C@@H](O)[C@H](O)[C@H](O)CO)C[C@H](O)[C@@H](O)[C@H](O)[C@H](O)CO)C(N)=O)cc1)NC(=O)c1nc(Cl)c(N)nc1N [XVI-ee] |
| None | 1.9 ± 1.7 | None | CCCCCCN(CCCN[C@@H](Cc1ccc(CCCCNC(=N)NC(=O)c2nc(Cl)c(N)nc2N)cc1)C(N)=O)C[C@H](O)[C@@H](O)[C@H](O)[C@H](O)CO [XVII-d] |
